Measurements published in US12161686B2, “Natural preservatives and antimicrobial agents, including compositions thereof” (Unigen, Inc., priority 2015, dated 2024).

Columns and labels:
Type in all cases: cell-based
[1] = tested on: Aspergillus brasiliensis (ATCC 16404); experiment: Minimum Inhibitory Concentration Method (MIC/MBC), broth dilution; FIC index
Experimental: (§1) Minimum Inhibitory Concentration against bacterial S. aureus, P. aeruginosa, E. coli, and fungi A. brasiliensis and C. albicans were determined for Albizia amara seeds extract and the active marker compound bundmunchiamine C. The Minimum Inhibitory Concentration Method (MIC) is carried out following the general microbiological protocol to measure the lowest level of an antimicrobial agent that can inhibit microbial proliferation in liquid. Test microorganisms are prepared in liquid culture medium for bacteria or on agar for fungi. Suspensions of test microorganisms are standardized by dilution in appropriate broth solution, usually Mueller-Hinton broth. […]
(§2) In vitro antifungal combinations are commonly evaluated on the basis of the fractional inhibitory concentration (FIC) index, which represents the sum of the FIC of each substance tested. […]
(§3) The fractional inhibitory concentration (FIC) was calculated with the equation: FIC of drug A (FIC A)=MIC of drug A in combination/MIC of drug A alone, and FIC of drug B (FIC B)=MIC of drug B in combination/MIC of drug B alone]. The FIC Index (FICI), calculated as the sum of each FIC (YFIC). The calculated index of 1A:1M and 1A:3M against C. albicans were 0.187 and 0.292. […]

[2] = tested on: Candida albicans (ATCC 10231); experiment: as above
Experimental: as §1, §2, §3

Streptococcus pyogenes = experiment: Minimum Inhibitory Concentration Method (MIC/MBC)
[3] = tested on: Pseudomonas aeruginosa (ATCC 9027); experiment: Minimum Inhibitory Concentration Method (MIC/MBC), broth dilution
Experimental: (§4) Minimum Inhibitory Concentration against bacterial S. aureus, P. aeruginosa, E. coli, and fungi A. brasiliensis and C. albicans were determined for Albizia amara seeds extract and the active marker compound bundmunchiamine C. The Minimum Inhibitory Concentration Method (MIC) is carried out following the general microbiological protocol to measure the lowest level of an antimicrobial agent that can inhibit microbial proliferation in liquid. Test microorganisms are prepared in liquid culture medium for bacteria or on agar for fungi. Suspensions of test microorganisms are standardized by dilution in appropriate broth solution, usually Mueller-Hinton broth. The test substance is prepared by conducting several serial 1:1 dilutions in a 96-well microtiter plate or in small test tubes, through Mueller-Hinton broth or other appropriate medium. All wells or tubes containing diluted test substances are inoculated with test microorganisms, individually, resulting in one additional and final dilution of the product in all test vessels. The microtiter plate or test tubes are incubated for 18-24 hours. After the incubation period, observations are made to determine the minimum concentration (MIC) which is the lowest concentration of test substance in a well where no turbidity (indicative of test microorganism growth) is observed and minimum bactericidal concentration (MBC).
(§5) The Albizia amara seeds extract RN368-31-MIX and budmunchiamine C were tested against five microorganisms required for category 2 including Staphylococcus aureus (ATCC 6538), Escherichia coli (ATCC 8739), Pseudomonas aeruginosa (ATCC 9027), Candida albicans (ATCC 10231), Aspergillus brasiliensis (ATCC 16404).

[4] = tested on: Escherichia coli (ATCC 8739); experiment: as above
Experimental: as §4, §5

[5] = tested on: Staphylococcus aureus (ATCC 6538); experiment: as above
Experimental: as §4, §5

## budmunchiamine C
[1]
  MIC Aspergillus brasiliensis: 125 µg/mL
[2]
  MBC Candida albicans: 125 µg/mL
Streptococcus pyogenes
  MIC Streptococcus pyogenes: < 0.97 µg/mL
[3]
  MBC Pseudomonas aeruginosa: 62.5 µg/mL
  MIC Pseudomonas aeruginosa: 62.5 µg/mL
[4]
  MBC Escherichia coli: 31.25 µg/mL
[4]; neutral condition
  MIC Escherichia coli: 31.25 µg/mL
[5]
  MBC Staphylococcus aureus: 31.25 µg/mL
  MIC Staphylococcus aureus: 31.25 µg/mL
